Experimental data reported in US12440571B2, “Immune agonists” (SHENZHEN UNIVERSITY, priority 2020, dated 2025).
Where two headings read alike, the source gives them in different places.

How the values were obtained:
Format in all cases: cell-based
[1] = tested on: murine leukemia WEHI-3 cells; test: CCK8 growth inhibition, WEHI-3; conditions: Mus musculus, CCK8 method, read-out: IC50 of inhibitory activity on tumor cell growth, WEHI-3
TLR7 = target: T1, TLR7 (Homo sapiens, UniProt Q9NYK1); test: Detection of TLR7 activation (HEK-Blue Detection), SEAP reporter; conditions: HEK-Blue hTLR7 cells, 6-16 hrs, absorbance 650 nm; read-out: TLR7(EC50/μM)
T1 construct: host or cells: HEK-Blue hTLR7 cells (HEK293-derived SEAP reporter line)
T1 sequence (Q9NYK1 27-1049): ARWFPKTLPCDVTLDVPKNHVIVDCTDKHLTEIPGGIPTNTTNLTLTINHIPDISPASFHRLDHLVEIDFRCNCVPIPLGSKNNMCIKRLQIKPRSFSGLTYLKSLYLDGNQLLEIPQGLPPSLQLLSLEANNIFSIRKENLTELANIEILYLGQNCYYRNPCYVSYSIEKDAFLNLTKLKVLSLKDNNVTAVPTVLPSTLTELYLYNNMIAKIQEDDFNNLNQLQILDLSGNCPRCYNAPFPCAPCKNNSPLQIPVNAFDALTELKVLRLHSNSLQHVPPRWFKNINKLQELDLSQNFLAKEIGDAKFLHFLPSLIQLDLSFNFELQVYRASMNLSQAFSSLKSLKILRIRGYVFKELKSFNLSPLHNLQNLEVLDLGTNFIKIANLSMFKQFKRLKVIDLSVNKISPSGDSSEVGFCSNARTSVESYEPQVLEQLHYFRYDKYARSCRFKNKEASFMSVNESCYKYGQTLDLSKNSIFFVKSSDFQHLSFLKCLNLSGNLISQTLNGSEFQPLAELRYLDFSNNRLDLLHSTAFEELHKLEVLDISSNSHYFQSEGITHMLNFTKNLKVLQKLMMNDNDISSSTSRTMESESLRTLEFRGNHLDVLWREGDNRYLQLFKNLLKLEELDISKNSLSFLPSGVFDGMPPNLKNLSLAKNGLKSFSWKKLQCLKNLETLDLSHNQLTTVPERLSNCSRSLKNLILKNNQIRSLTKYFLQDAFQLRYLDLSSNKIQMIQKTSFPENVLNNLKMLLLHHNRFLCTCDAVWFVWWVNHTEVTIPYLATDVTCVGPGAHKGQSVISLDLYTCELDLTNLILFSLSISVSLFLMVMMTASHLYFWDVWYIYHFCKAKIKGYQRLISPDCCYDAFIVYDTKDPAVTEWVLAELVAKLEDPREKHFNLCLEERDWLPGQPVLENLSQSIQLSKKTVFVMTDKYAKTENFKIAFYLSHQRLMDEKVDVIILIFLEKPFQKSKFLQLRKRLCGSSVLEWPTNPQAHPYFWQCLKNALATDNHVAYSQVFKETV
Method: HEK-Blue™hTLR7 cells (purchased from InvivoGen) in a logarithmic growth phase were taken, with a growth medium (Gibco, C11995500BT, Invivo Gen, ant-nr) discarded. The cells were gently rinsed twice by an appropriate amount of 37° C. PBS (Hyclone, SH30256.01), a rinsed PBS was discarded. Thereafter, the cells were added with 2-5 mL of 37° C. PBS, incubated for 1 to 2 minutes, and then scraped by a cell scraper and gently pipetted to be dispersed into a single cell suspension. A hemocytometer was adopted to count the cells and a cell concentration was calculated. After that, a HEK-Blue™ Detection solution (purchased from Invivo Gen) was adopted to adjust the cell concentration of the cell suspension to 2.5×10^4/180 μL per well for cell plating on a 96-well cell culture plate. The HEK-Blue™hTLR7 cells were stimulated according to the designed series of GY compound or drug concentrations (0.01 μM, 0.1 μM, 1 μM, 5 μM, 15 μM, and 30 μM), with 3 replicate wells for each concentration, and were incubated at 37° C., 5% carbon dioxide for 6-16 hrs. After the incubation, the absorbance value was read at 650 nm with a full-wavelength microplate reader (BioTek-Epoch), as listed in Table 2.
Relative induction=(average OD value of experimental group−average OD value of negative control group)/average OD value of negative control group.
Specific details for the above method may be referred to https: • //www.invivogen.com/hek-blue-htlr7; https://www.invivogen.com/sites/default/files/invivogen/products/files/hek_blue_htlr7_tds.pdf.

[2] = tested on: human lymphoma Daudi B cells; test: CCK8 growth inhibition, Daudi B; conditions: CCK8 method, read-out: IC50 of inhibitory activity on tumor cell growth, Daudi B
[3] = tested on: murine spleen lymphocytes; test: Cytokine stimulation of murine spleen lymphocytes, ELISA; conditions: mouse immune cells (spleen lymphocytes), 24 hrs, ELISA; for EC50: Lymphocyte
Method: The stimulating effect of a series of GY compounds or drugs on murine spleen lymphocytes was detected by ELISA.
6-week-old Balb/c mice were sacrificed by cervical dislocation, spleens were taken under aseptic conditions. A 1 mL sterile syringe and a 200 mesh cell strainer were adopted to quickly grind and disperse the spleen into individual cells in 4 mL of a murine lymphocyte separation solution (Dakko's, 7211011). A resulting cell homogenate was transferred to a 15 mL centrifuge tube, then 1 mL of a RPMI 1640 medium (Hyclone, SH30809.01) was slowly added. Spleen lymphocytes were separated by a density gradient centrifugation method (800×g, 30 min), washed, red blood cells therein were lysed, such that a dispersed spleen lymphocyte suspension was obtained. Cells were counted by a hemocytometer, to calculate the cell concentration. A RPMI 1640 complete medium was adopted to adjust the cell suspension to a concentration of 1×10^6/ml/well, and the cells were then plated on a 24-well cell culture plate (Corning, 3524).
Murine spleen lymphocytes were stimulated according to the gradient concentrations of the series of GY compounds or drugs, and incubated in a 37° C., 5% carbon dioxide incubator for 24 hrs.
• (1) Coating: a Capture antibody (primary antibody, purchased from Invitrogen) was diluted with a 1×Coating Buffer (coating buffer, purchased from Invitrogen) to a recommended concentration, and 100 μL of a resulting diluted solution was added to each well of a 96-well microtiter plate, the plate was sealed with a sealing film at 4° C. overnight. • (2) Washing: a liquid in each well was discarded, then 300 μL of a PBST working solution was added to each well and kept for 1 min, thereafter, the liquid therein was discarded. The washing process was repeated 3 times. • (3) Blocking: 200 μL of a blocking solution was added to each well. The plate was sealed with a sealing film, and placed on a shaker and incubated at room temperature for 1 hr, then washed and patted to be dry. • (4) Sample incubation: a sample was collected and centrifuged to collect a supernatant. Standards, samples, negative controls, and blank controls were provided in the 96-well microtiter plate, and each concentration or sample were provided with 2 replicates. 100 μL of a standard or sample was added to each well, thereafter, the plate was sealed with a sealing film, incubated on a shaker at room temperature for 1 hr or overnight at 4° C., then washed and pated to be dry. • (5) Secondary antibody incubation: the detection antibody (secondary antibody, purchased from Invitrogen) was diluted to a recommended concentration with a dilution buffer, 100 μL of a secondary antibody was added to each well. After being sealed with a sealing film, the plate was incubated on a shaker at room temperature for 1 hr, then washed and patted to be dry. • (6) Avidin-HRP incubation: Avidin-HRP (horseradish peroxidase marker, purchased from Invitrogen) was diluted to the recommended concentration with a dilution buffer, 100 μL of Avidin-HRP was added to each well. After being sealed with a sealing film, the plate was placed on a shaker and incubated at room temperature for 30 mins, washed 5-7 times by the process of step 2), and patted to be dry. • (7) TMB color development: 100 μL of a TMB color development solution (purchased from Invitrogen) was added to each well, for carrying out reaction for 15 mins at room temperature in the dark. • (8) Stopping reaction: 50 μL of 1M H2SO4 solution was added to each well. • (9) Reading an absorbance value by a microplate reader: the OD value at 450 nm wavelength was read. A standard curve and a parameter nonlinear regression equation were drawn, and a sample concentration was calculated according to the obtained formula.

[4] = tested on: human leukemia HL-60 cells; test: CCK8 growth inhibition, HL60; conditions: read-out: IC50 of inhibitory activity on tumor cell growth, HL60
[5] = tested on: human lymphoma Raji cells; test: CCK8 growth inhibition, Raji; conditions: CCK8 method, read-out: IC50 of inhibitory activity on tumor cell growth, Raji
black melanoma B16 cells = test: CCK8 growth inhibition, B16; conditions: Mus musculus, CCK8 method, read-out: IC50 of inhibitory activity on tumor cell growth, B16
[6] = tested on: human leukemia K562 cells; test: CCK8 growth inhibition, K562; conditions: CCK8 method, read-out: IC50 of inhibitory activity on tumor cell growth, K562
HEK293T cells = test: CCK8 growth inhibition, HEK-293T; conditions: Homo sapiens, CCK8 method, read-out: IC50 of inhibitory activity on cell growth, HEK-293T
[7] = tested on: murine colon cancer CT-26 cells; test: CCK8 growth inhibition, CT26; conditions: Mus musculus, CCK8 method, read-out: IC50 of inhibitory activity on tumor cell growth, CT26
[8] = tested on: Murine breast cancer 4T1 cells; test: CCK8 growth inhibition, 4T1; conditions: Mus musculus, CCK8 method, 24 hrs (or 36, 72 hrs), read-out: IC50 of inhibitory activity on tumor cell growth, 4T1
Method: Murine breast cancer 4T1 cells (Kailian Biotech, KG338) in a logarithmic growth phase were selected and washed with PBS, digested with 0.25% trypsin (including EDTA), stopped digestion with a DMEM complete medium, then centrifuged, and resuspended to form a suspension of 4T1 single cells. Cells were counted using a hemocytometer and a cell concentration was calculated. A DMEM complete medium was used to adjust the cell suspension to a target concentration, and thereafter, the cells were plated on a 96-well cell culture plate according to 4×10^3/100 μL per well. After adherering to the wall, the 4T1 cells were stimulated according to the designed concentration gradients of the series of GY compounds or drugs, with each concentration being provided with 3 replicate holes. The 96-well cell culture plate with 4T1 cells seeded and dosing was placed in the cell incubator, and incubated at 37° C., 5% carbon dioxide for 24 hrs (or 36, 72 hrs). After the incubation time was over, 10 μL of CCK8 reagent was added to each well and incubated for 1-2 hrs at 37° C. A full-wavelength microplate reader was adopted to test an OD value at 450 nm wavelength.
CCK8 calculation formula is as follows: • Cell survival rate (100%)=[…]/(Ac−Ab)×100% • As: Absorbance of wells containing cells, CCK8 solution, and drug solution • Ac: Absorbance of wells containing cells and CCK8 solution, and no drug solution • Ab: Absorbance of wells containing CCK8 solution, no cells, and no drug solution
Cell growth inhibition rate (%)=1−((OD value of experimental group−OD value of blank group)/(OD value of control group−OD value of blank group)×100%).

MB231 = test: CCK8 growth inhibition, MB231; conditions: CCK8 method; read-out: IC50 of inhibitory activity on tumor cell growth, MB231
A549 = test: CCK8 growth inhibition, A549; conditions: Homo sapiens, CCK8 method, read-out: IC50 of inhibitory activity on tumor cell growth, A549
[9] = read-out: TNF-alpha EC50 of cytokine stimulating activity
[10] = Homo sapiens, HL-60, CCK8 method

IC50 [1] [µM]	EC50 (TLR7) [µM]	EC50 [3, 9] [µM]	IFN-gamma EC50 of cytokine stimulating activity [3]	IC50 [4, 10] [µM]	IC50 [8] [µM]	IC50 (A549) [µM]	SMILES	further results
14.7	5.42	2.15	No fit	–	–	–	C=C(CC(=O)NCCOCCOCCOCCn1cc(Cn2c(O)nc3c(N)nc(OCCCC)nc32)nn1)C(=O)N1CCC(C2CCNc3c(C(N)=O)c(-c4ccc(Oc5ccccc5)cc4)nn32)CC1 (single isomer, unassigned) [GY132]	IC50 [2]: 5.36 µM; IL-6 EC50 of cytokine stimulating activity [3]: No fit; IC50 ([4]; CCK8 method): 5.13 µM; IC50 [5]: 2.03 µM
47.6	–	–	–	–	–	–	CCCCOc1nc(N)c2nc(O)n(Cc3cn(CCOCCOCCOCC(=O)N4CCN(C/C=C/C(=O)N5CCCC(n6nc(-c7ccc(Oc8ccccc8)cc7)c7c(N)ncnc76)C5)CC4)nn3)c2n1 (stereo not shown) [GY138]	–
7.38	4.97	–	–	92.1	2.86	–	C=C(CC(=O)NCCOCCOCCOCCn1cc(Cn2c(O)nc3c(N)nc(OCCCC)nc32)nn1)C(=O)N1CCC[C@@H](n2nc(-c3ccc(Oc4ccccc4)cc3)c3c(N)ncnc32)C1 [GY131]	IC50 (black melanoma B16 cells): 40.7 µM; IC50 ([2]; Homo sapiens, Daudi): 14.1 µM; IC50 [6]: 92.1 µM; IC50 (HEK293T cells): 25.1 µM; IC50 [7]: 166 µM; IC50 ([5]; Homo sapiens, Raji): 10.4 µM
–	–	–	–	15.1	14.7	16.6	CCCCOc1nc(N)c2nc(O)n(Cc3cn(CCOCCOCCOCCN4CCN(CCCNC(=O)CC5N=C(c6ccc(Cl)cc6)c6c(sc(C)c6C)-n6c(C)nnc65)CC4)nn3)c2n1 (stereo not shown) [GY118]	IC50 (MB231): 5.8 µM
22.3	–	–	–	–	–	–	C=C(CC(=O)N1CCC(C2CCN=C3C(C(N)=O)=C(c4ccc(Oc5ccccc5)cc4)NN32)CC1)C(=O)NCCOCCOCCOCCn1cc(Cn2c(O)nc3c(N)nc(OCCCC)nc32)nn1 (stereo not shown) [GY150]	–
–	–	34.7	No fit	–	–	17.1	CCCCOc1nc(N)c2nc(O)n(Cc3cn(CCOCCOCCOCC(=O)Nc4cc(Nc5nccc(-c6cn(C)c7ccccc67)n5)c(OC)cc4N(C)CCN(C)C)nn3)c2n1 [GY104]	EC50 ([3]; read-out: IL-6 EC50 of cytokine stimulating activity): 27.7 µM
